Columns and labels:
[1] = target: T1, Histone-arginine methyltransferase CARM1 (Homo sapiens) (UniProt Q86X55); conditions: MM1.S, at 3 µM
T1 sequence (whole entry): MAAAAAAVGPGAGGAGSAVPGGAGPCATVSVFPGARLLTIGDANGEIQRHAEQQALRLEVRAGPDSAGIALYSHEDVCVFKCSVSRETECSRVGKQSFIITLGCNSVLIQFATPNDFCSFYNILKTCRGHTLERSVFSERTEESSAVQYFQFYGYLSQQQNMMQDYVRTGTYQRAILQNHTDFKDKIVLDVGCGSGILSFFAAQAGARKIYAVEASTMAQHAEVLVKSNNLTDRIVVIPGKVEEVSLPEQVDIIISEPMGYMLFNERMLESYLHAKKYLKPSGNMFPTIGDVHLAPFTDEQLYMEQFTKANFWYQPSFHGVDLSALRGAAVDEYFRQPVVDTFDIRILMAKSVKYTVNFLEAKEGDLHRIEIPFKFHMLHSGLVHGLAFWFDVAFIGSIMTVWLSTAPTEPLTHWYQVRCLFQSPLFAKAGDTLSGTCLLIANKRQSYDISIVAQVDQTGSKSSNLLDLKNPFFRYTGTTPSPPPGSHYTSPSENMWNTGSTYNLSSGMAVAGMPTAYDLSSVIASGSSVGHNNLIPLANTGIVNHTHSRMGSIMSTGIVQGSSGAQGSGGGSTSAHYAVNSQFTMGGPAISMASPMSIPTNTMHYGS

[2] = target: Ribosomal protein S6 kinase alpha-6 (Homo sapiens, UniProt Q9UK32); assay: Selectivity interaction (KinomeScan (DiscoverX)) EUB0001079a RPS6KA6; conditions: at 1 µM
[3] = tested on: Hepatocyte growth factor receptor (Homo sapiens), P08581 [M1250T]; assay: (§1) Selectivity interaction (KinomeScan (DiscoverX)) EUB0000666a MET; conditions: at 10 µM
[4] = tested on: Hepatocyte growth factor receptor (Homo sapiens), P08581 [Y1235D]; assay: as §1; conditions: at 10 µM
[5] = target: Death-associated protein kinase 3 (Homo sapiens) (UniProt O43293); assay: Selectivity interaction (KinomeScan (DiscoverX)) EUB0001619a DAPK3; conditions: at 1 µM
[6] = target: Platelet-derived growth factor receptor beta (Homo sapiens, UniProt P09619); assay: Selectivity interaction (KinomeScan (DiscoverX)) EUB0000618a PDGFRB; conditions: at 10 µM
[7] = target: T2, cGMP-dependent protein kinase 2 (Homo sapiens) (UniProt Q13237); assay: Selectivity interaction (Kinase panel (Invitrogen)) EUB0000639a PRKG2; conditions: at 200 nM
T2 sequence (whole entry): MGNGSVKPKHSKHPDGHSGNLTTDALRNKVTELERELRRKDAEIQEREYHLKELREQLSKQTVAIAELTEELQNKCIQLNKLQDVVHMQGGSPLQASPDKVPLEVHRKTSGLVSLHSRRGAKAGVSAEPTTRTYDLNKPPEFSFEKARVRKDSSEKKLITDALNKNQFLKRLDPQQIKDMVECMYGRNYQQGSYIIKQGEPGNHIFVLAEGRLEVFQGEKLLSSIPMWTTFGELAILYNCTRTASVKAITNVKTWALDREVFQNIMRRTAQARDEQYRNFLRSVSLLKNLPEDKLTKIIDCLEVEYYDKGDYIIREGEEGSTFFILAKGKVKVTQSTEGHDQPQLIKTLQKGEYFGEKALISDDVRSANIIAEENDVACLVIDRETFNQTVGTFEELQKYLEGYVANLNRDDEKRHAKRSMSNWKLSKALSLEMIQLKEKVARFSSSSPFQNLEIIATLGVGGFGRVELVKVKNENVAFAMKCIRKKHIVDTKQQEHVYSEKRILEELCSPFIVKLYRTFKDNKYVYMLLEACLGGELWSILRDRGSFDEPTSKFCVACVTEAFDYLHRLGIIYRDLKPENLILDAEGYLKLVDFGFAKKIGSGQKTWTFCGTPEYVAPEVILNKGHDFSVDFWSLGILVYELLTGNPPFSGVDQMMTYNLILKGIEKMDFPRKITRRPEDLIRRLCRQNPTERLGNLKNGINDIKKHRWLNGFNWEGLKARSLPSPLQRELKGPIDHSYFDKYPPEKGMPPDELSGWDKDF

[8] = target: T3, Activin receptor type-1 (Homo sapiens) (UniProt Q04771); conditions: at 10 µM
T3 sequence (whole entry): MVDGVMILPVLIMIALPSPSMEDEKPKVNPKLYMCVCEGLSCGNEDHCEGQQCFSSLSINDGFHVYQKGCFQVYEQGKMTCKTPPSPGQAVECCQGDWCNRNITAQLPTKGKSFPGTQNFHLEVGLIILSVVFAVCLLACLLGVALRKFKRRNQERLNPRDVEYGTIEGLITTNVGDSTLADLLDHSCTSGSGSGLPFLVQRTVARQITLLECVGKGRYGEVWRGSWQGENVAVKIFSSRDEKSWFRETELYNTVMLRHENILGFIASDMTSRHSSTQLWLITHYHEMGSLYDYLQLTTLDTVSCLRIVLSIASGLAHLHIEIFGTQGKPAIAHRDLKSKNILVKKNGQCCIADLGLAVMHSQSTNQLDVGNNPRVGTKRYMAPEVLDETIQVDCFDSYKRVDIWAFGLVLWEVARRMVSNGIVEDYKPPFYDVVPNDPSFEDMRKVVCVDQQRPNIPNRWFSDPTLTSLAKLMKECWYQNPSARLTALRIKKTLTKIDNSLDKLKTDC

Chain of Hepatocyte growth factor receptor (Homo sapiens), P08581 [M1250T] (P08581 whole entry M1250T): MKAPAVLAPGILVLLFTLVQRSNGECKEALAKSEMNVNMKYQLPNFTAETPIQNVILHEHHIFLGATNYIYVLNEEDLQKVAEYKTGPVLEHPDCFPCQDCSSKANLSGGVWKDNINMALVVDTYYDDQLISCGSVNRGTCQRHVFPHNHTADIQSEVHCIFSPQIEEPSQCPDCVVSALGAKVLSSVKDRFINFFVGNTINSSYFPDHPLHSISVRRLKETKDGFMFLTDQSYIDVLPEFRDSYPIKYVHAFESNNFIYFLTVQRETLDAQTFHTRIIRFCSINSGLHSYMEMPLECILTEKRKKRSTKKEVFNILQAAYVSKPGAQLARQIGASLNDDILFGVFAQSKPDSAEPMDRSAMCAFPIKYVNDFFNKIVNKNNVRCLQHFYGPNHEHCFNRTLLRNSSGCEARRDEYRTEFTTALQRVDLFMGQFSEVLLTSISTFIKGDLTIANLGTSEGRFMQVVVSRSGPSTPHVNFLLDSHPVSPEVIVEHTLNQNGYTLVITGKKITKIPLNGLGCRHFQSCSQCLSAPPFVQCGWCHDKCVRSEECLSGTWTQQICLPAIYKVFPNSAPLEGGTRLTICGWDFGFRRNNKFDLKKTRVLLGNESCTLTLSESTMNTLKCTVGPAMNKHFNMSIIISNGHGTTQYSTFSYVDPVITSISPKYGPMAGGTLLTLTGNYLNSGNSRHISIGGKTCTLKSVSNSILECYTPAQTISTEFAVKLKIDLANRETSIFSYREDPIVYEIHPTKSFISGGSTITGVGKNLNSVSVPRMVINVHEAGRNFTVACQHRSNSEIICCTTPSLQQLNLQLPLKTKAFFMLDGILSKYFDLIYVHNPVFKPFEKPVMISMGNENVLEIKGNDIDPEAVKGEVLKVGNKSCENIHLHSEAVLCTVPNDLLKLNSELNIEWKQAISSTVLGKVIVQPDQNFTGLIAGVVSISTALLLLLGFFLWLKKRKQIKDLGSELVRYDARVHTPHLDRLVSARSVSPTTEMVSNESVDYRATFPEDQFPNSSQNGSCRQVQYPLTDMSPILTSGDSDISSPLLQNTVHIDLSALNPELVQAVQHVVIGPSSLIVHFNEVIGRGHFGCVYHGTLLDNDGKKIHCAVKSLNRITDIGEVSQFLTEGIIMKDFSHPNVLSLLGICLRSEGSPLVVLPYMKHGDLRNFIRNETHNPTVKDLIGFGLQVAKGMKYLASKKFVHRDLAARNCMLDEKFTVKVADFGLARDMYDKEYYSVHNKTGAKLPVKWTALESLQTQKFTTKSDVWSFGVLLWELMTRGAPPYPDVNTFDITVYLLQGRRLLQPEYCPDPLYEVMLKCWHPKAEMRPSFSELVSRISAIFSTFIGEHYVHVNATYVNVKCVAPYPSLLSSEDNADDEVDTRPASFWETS
Chain of Death-associated protein kinase 3 (Homo sapiens) (O43293 whole entry, looked up): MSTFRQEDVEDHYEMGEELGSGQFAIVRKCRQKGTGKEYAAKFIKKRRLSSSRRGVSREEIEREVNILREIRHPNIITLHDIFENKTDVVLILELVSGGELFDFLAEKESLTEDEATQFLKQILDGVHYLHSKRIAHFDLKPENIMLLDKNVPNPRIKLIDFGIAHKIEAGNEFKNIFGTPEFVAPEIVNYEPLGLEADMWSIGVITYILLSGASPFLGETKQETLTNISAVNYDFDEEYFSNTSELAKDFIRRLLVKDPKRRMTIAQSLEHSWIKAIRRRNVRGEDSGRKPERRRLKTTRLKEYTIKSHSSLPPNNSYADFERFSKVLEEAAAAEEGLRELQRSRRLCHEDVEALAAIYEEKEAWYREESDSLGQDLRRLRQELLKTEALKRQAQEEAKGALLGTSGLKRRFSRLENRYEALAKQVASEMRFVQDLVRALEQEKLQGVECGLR
Chain of Platelet-derived growth factor receptor beta (P09619 whole entry): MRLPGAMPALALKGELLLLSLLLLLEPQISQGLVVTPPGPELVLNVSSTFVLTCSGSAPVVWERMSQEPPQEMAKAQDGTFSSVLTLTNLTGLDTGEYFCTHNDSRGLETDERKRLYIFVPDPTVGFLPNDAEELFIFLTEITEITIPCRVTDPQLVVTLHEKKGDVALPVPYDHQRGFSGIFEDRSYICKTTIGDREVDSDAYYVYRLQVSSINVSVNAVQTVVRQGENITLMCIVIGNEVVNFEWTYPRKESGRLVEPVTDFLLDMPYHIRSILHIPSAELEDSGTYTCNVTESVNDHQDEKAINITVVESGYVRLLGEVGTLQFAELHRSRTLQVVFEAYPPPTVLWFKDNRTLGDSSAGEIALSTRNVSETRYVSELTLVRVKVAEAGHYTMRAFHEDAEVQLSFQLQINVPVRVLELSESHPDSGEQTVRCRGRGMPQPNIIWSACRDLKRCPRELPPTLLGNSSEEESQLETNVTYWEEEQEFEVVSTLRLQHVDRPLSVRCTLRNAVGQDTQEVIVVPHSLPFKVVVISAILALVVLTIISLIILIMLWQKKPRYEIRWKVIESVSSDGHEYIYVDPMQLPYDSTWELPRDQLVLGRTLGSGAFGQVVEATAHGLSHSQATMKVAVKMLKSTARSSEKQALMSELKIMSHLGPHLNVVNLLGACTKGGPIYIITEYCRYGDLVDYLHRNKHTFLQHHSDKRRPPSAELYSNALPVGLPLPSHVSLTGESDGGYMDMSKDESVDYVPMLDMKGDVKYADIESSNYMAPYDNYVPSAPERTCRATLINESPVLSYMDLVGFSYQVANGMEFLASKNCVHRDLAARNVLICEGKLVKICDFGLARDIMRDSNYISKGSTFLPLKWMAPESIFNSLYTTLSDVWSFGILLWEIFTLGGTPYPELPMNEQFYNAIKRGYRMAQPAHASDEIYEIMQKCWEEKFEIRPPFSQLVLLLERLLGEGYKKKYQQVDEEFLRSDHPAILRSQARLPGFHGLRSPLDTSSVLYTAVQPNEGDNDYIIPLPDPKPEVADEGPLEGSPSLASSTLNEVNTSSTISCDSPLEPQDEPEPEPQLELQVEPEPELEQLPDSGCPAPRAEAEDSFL
Chain of Hepatocyte growth factor receptor (Homo sapiens), P08581 [Y1235D] (P08581 whole entry Y1235D): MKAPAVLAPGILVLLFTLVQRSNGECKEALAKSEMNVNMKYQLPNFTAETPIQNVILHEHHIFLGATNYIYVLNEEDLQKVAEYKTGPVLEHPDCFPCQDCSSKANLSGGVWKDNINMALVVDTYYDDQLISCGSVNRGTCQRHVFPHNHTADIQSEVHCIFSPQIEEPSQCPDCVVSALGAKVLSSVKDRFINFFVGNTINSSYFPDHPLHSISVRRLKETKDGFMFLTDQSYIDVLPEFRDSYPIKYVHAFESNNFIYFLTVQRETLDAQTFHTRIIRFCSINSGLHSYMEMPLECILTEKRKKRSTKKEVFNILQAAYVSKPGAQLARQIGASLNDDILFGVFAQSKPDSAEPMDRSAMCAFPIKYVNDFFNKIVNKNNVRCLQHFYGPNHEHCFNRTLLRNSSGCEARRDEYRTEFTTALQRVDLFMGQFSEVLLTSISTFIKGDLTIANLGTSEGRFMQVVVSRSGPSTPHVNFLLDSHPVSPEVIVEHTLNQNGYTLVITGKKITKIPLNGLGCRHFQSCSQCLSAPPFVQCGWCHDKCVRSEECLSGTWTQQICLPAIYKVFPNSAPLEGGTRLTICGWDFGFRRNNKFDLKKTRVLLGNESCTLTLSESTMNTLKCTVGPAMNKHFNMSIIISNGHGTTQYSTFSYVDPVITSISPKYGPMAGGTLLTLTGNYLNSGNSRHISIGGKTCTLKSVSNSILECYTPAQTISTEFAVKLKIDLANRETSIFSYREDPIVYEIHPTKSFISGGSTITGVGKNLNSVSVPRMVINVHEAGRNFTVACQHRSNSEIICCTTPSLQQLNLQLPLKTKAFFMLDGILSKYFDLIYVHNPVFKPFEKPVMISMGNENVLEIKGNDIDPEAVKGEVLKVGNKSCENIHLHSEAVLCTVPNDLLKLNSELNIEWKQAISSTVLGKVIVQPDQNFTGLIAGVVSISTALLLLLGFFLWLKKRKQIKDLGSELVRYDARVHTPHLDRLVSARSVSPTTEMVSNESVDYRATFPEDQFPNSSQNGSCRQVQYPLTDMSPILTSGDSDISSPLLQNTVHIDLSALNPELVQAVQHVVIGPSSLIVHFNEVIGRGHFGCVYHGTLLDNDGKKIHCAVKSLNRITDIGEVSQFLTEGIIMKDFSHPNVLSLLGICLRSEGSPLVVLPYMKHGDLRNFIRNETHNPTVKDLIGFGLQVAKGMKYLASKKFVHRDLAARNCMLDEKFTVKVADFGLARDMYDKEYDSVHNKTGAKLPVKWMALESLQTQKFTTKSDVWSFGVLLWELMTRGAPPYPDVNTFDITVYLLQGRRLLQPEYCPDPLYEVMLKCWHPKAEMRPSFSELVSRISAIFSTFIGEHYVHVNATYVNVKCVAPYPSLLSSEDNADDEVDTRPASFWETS
Chain of Ribosomal protein S6 kinase alpha-6 (Q9UK32 whole entry): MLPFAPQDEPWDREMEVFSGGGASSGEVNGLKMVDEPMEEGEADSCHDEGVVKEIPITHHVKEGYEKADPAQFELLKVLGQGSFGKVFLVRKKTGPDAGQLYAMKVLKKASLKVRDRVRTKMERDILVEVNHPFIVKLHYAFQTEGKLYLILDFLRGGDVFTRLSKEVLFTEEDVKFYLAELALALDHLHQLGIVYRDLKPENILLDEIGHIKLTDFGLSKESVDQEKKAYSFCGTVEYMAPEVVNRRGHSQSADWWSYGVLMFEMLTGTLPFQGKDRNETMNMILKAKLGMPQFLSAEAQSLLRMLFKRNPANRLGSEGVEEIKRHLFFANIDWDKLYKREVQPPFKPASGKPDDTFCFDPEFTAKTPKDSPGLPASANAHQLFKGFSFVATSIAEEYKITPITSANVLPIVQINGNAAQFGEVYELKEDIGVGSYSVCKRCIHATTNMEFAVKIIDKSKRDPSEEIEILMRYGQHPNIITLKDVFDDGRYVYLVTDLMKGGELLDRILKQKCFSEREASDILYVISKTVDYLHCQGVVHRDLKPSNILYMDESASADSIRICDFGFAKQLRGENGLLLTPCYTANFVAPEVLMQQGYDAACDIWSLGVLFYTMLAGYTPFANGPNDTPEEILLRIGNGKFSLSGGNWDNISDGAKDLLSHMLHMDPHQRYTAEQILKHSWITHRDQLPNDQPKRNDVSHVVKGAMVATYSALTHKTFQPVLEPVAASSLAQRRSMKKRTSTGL

**Q.** For `CNCCN1CCC(c2cc(CN(C)C(=O)c3cccc(Oc4ccccc4)c3)ccn2)CC1`, which % of growth rate [1] is on record?
**A.** -31%

**Q.** How did the % of control [2] turn out when `Nc1cnc(N2CCc3cc(S(=O)(=O)Nc4c(F)cc(Cl)cc4F)cc(N4CCCC4=O)c32)nc1` [TP-020n] was run?
**A.** 86%

**Q.** What does the source list for `O=C(NOC[C@H](O)CO)c1ccc(F)c(F)c1Nc1ccc(I)cc1F`?
**A.** % of control [3]: 92%; % of control [4]: 100%

**Q.** Which % of control [5] does the source give for `N#Cc1cccc(-c2c[nH]c3ncnc(N4CCOCC4)c23)c1` here?
**A.** 100%

**Q.** For `O[C@H]1CC[C@H](Nc2ncc3nc(Nc4c(F)cc(F)cc4F)n([C@H]4CCOC4)c3n2)CC1`, which % of control [6] is on record?
**A.** 64%

**Q.** Which % of inhibition [7] does the source give for `CC[C@@H]1[C@H](F)C(=O)N[C@@H]1COc1nccc2cc(C(N)=O)c(OC)cc12` [ZIMLOVISERTIB] here?
**A.** 10.5%

**Q.** Which % of control [8] does the source give for `CCN(CC)CCCCNc1ncc2cc(-c3cc(OC)cc(OC)c3)c(NC(=O)NC(C)(C)C)nc2n1` here?
**A.** 100%
